Laboratory results reported in PMC6382696, “Drug Repurposing: The Anthelmintics Niclosamide and Nitazoxanide Are Potent TMEM16A Antagonists That Fully Bronchodilate Airways” (Frontiers in Pharmacology, 2019).
Read-outs that look alike come from different tables or passages of the source. Values belong to the compound of their own block, whether it stands above or below them.

What was measured:
TMEM16A (acd) = molecular target: T1, TMEM16A (acd) (Homo sapiens, UniProt Q5XXA6); assay: QPatch whole-cell electrophysiology, HEK293 TMEM16A (acd); format: cell-based; conditions: QPatch
T1 sequence (Q5XXA6 1-986): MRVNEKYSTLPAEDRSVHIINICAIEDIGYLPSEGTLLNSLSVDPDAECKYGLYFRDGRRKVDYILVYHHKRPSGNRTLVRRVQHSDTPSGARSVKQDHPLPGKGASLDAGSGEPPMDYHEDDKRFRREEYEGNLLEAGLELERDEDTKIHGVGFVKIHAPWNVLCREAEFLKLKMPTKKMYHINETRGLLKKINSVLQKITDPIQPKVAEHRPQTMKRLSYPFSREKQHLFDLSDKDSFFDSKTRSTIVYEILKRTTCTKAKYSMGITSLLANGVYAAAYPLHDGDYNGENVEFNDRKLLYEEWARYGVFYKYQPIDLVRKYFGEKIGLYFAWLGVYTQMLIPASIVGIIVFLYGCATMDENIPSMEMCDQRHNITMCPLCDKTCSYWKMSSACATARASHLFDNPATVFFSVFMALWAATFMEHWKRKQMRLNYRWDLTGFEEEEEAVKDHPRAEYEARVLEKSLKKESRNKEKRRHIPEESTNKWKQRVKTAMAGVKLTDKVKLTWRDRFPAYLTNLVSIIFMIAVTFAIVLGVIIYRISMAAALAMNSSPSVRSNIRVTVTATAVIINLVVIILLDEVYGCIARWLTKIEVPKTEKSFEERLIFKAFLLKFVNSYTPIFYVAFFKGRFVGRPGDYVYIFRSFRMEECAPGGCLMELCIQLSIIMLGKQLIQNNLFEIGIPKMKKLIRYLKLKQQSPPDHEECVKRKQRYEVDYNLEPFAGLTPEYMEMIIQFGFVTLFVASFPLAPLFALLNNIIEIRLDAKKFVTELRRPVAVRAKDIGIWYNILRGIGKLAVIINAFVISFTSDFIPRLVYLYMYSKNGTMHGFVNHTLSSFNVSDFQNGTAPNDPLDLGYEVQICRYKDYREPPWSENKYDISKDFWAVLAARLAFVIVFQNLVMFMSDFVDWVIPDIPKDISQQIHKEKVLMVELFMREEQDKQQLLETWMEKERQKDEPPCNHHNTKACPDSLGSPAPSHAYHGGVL
Description: HEK293 cells stably expressing the TMEM16A (acd) variant were purchased from SB Drug Discovery. The HEK293 TMEM16A (abc) stable cell line was from ChanTest and COLO-205 cells were purchased from ATCC. The same standard buffers and recording conditions listed below were used for QPatch studies on all three cell lines.
Recording Solutions: were made weekly as below and stored at room temperature until used. It is recommended not to add ATP to internal solution until immediately before using on the QPatch. The external buffer (in mM) was 140 NaCl, 4 KCl, 2 CaCl2, 1 MgCl2, 10 HEPES, 10 Glucose, pH7.4, while the internal buffer (in mM) was 110 CsCl, 20 TEA-Cl, 5.374 CaCl2, 1.75 MgCl2, 10 EGTA, 10 HEPES, 4 Na2ATP, pH 7.2.
Once established in whole-cell configuration, cells were clamped to a holding potential (Vhold) of 0 mV on 48 well single hole patch plate. A standardized IV protocol was used to elicit ionic current through the TMEM16A chloride channel at 20 s intervals. Steady-state voltage pulses were from −100 mV to +100 mV in +20 mV steps for a duration of 500 ms. After each pulse the voltage was returned to −100 mV for 50 ms to obtain tail currents, and then returned to the holding potential of 0 mV until the beginning of the next sweep. […] This ensures a minimum of 60 s per concentration incubation before measuring current block. Currents were acquired at 10 kHz and filtered at 2 kHz, leak subtraction and Rseries were disabled. A 1 MΩ minimum resistance was set because cells are held in an open channel state and therefore resistance is low.
A cumulative concentration response was measured where each cell is exposed to five concentrations of test article with a dilution factor of 1:5 (e.g., 0.048, 0.24, 1.2, 6, and 30 μM). Cells were recorded for ∼60 s per solution/compound addition. Initially, external solution is applied twice to allow currents to stabilize. Then vehicle (from the saline reservoir) is added twice to monitor any effect 0.3% DMSO might have on currents. This leads directly into the concentration runs by applying Concentration 1 (single addition) for 1 min. Concentration 2 is then applied for the subsequent minute, etc. Recovery/washout was monitored for a final minute with a final external solution addition.
[…] […] Each cell’s current magnitude was then normalized to itself at the initial 0.3% vehicle control period prior to compound application. This step is to account for differences in current size for each cell. Normalized responses to test article were plotted against their concentrations to reveal a concentration-inhibition plot.
A Normalized Group Hill fit was then performed on the plotted results to yield a pooled IC50 value, reconstructed from a minimum of two cells/concentration. The baseline response as well as the full response were constrained to 1 and 0, respectively.

hTMEM16A (abc) = molecular target: T2, hTMEM16A (abc) (Homo sapiens, UniProt Q5XXA6, DEL476-501); assay: medchem TMEM16A halide-sensitive YFP assay, 22-point dose-response; format: cell-based; set-up: expressed in transfected cells
T2 sequence (Q5XXA6 with tags, fused parts or gaps isoform Q5XXA6-5 DEL539-564): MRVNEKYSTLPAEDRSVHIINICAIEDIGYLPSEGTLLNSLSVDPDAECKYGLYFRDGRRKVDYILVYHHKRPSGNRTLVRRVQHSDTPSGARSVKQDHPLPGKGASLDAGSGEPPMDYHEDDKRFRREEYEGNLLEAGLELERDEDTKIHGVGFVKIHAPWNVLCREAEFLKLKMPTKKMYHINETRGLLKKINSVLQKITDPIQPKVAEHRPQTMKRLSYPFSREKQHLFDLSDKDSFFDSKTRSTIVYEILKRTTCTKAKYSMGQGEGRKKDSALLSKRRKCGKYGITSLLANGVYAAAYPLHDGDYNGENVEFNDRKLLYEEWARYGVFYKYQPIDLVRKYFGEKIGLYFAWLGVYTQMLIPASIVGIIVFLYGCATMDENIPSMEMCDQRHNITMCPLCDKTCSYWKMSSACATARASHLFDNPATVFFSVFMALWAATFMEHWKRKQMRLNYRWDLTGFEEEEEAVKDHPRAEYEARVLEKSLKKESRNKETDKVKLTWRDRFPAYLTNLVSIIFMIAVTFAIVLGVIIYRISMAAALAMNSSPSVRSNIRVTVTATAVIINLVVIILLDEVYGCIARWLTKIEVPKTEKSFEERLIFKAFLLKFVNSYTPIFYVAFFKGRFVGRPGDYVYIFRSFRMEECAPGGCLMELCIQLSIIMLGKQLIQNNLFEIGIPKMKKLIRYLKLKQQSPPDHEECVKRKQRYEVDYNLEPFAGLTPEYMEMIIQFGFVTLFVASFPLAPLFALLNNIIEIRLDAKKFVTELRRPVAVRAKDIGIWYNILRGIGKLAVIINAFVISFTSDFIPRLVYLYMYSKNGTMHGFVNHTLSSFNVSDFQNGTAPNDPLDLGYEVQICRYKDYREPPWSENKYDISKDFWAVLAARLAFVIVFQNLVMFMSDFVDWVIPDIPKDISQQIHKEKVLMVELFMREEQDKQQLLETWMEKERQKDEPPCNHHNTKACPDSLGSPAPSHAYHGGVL
Protocol: The TMEM16A HEK293T eYFP (H149Q, I153L) stable cell line for medchem support was generated by transfecting 10 μg of linearized hTMEM16A(abc) DNA constructs into HEK293T eYFP (H149Q,I153L) stable cells. The transfected cells were cultured under 200 μg/ml of hygromycin B selection for 20 days and the stable pool was single cell seeded in 96 well plate and duplicated plate were made after single cell clones were formed. YFP function assay were performed on duplicated plate and clones producing higher changes in fluorescence from the YFP assay were chosen for further expansion to form a stable cell line.
Plates were incubated for 24 h at 37°C with 5% CO2. On the assay day, medium was removed and replaced with 20 μl/well of assay buffer (Hank’s Balanced Salt Solution with 10 mM HEPES pH 7.4), 10 μl/well of 40x diluted compounds was added to assay plate and it was incubated at room temperature for 30 min, after which baseline fluorescence was read in the FLIPR instrument for 10 s. Then, 5 μl/well of a 3x trigger solution (24 mM iodide, 3 μM ionomycin in assay buffer) was added and the fluorescence kinetic trace was recorded for 2 min.

cytochrome P450 enzymes = tested on: cytochrome P450 enzymes; set-up: method as in White, 2004; Anderson and Curran, 2007; Rossignol, 2014; conditions: ref White, 2004; Anderson and Curran, 2007; Rossignol, 2014; cited from earlier work
airways = tested on: airways; set-up: method as in Stocks et al., 2014; conditions: ref Stocks et al., 2014; cited from earlier work
human ASM cells = assay: Eact-induced depolarization of human ASM cells (FLIPR membrane potential); format: cell-based
Description: While the method above using histamine represents the standard protocol we used to evaluate compound effects in blocking pro-contractile depolarization of human BSMCs, for some experiments provided as Supplementary Figures 1–44 we employed the cholinergics methacholine or carbachol instead of histamine, or evaluated if the TMEM16A opener, Eact, could itself act like contractants to induce BSMC membrane depolarization.
3.31 Supplementary Figure 31
Supplementary Figure 31. The small molecule TMEM16A activator, Eact , induces depolarization of primary human airway smooth muscle cells like the contractant carbachol. Kinetic traces from the FLIPR membrane potential assay indicate Eact (A) and carbachol (B) elicit a concentration dependent depolarization of human ASM cells which were serum starved for 4 hours [prf SmGM overnight + 4h prf SmBM]. The potency for Eact depolarization of ASM cells isolated from a normal, asthmatic or COPD patient is shown in panel (C). The […]
report for activation of TMEM16A. RFU, relative fluorescence units. AUC, area under the curve.
(also on this page, place not known: ‘Eact’ Carbachol TMEM16A 3.0 µM A B C)
(1 picture or pasted object on this page, not shown here)

[1] = tested on: human bronchial epithelial ALI cultures; assay: Muc5AC secretion from human bronchial epithelial ALI cultures; format: cell-based; conditions: 5 μM, 72 hours, p < 0.05
Protocol: (§1) 1.2 Effects of the TMEM16A opener Eact on leukotriene secretion and Muc5AC mucin production from human bronchial epithelial air-liquid interface cultures.
(§2) Normal, asthma and COPD human bronchial epithelial (HBE) cells were from Lonza (Walkersville, MD). Cells were grown on […] transparent PET transwell membranes insert (BD biosciences, San Diego). S-ALI air-liquid interface media (Lonza) was changed every other day until the cells reached confluence, at which time the apical medium was removed to establish an air liquid interface cultures. The basolateral medium was changed every other day. All experimentation was carried out on day 14-18 after ALI establishment. At this point, mature secretory cells are present in these differentiating cultures and the cells respond with maximal […] to IL-13 (10 ng/ml) (Peprotech, […]
(§3) Human ALI cultures from a normal donor were treated with Eact, Eact vehicle and 10 ng/ml IL13 in basolateral medium for 48 hrs.
(§4) After 48hr, 100 µl of basolateral medium were collected for determining leukotriene B4 and C4 secretion using ELISA kits from Enzo Life Sciences, Inc. and LSBio LifeSpan Biosciences Inc., respectively, and by following manufacture’s protocols. […]
(§5) Levels of Muc5AC protein in apical washes was then determined using a Muc5AC ELISA kit (Cosmo Bio USA, Carlsbad, CA) and following the manufacture’s protocol.

TMEM16A = conditions: ref Namkung et al., 2011; read-out: EC50 in activating TMEM16A; cited from earlier work
[2] = tested on: human bronchial epithelial ALI cultures; assay: Leukotriene (LTC4, LTB4) secretion from human bronchial epithelial ALI cultures; format: cell-based; conditions: 48 hrs, p < 0.05
Protocol: as §1, §2, §3, §4, §5

IC50 (TMEM16A (acd); outward current at +100 mV, 170 nM free intracellular calcium, ~60 s per concentration, read-out: TMEM16A Chloride Current (IC50)): 1.26 ± 1.31 µM
calcium-activated chloride current inhibited (TMEM16A (acd); maximum antagonist activity): Over 80%
IC50 (hTMEM16A (abc); average, 22-point dose-response, iodide as permeant anion, read-out: TMEM16A eYFP Assay (IC50)): 1.23 µM
scope of block of ionomycin-induced iodide eYFP quenching (hTMEM16A (abc); up to 55.6 μM): partially inhibiting
SMILES: CC(=O)Oc1ccccc1C(=O)Nc1ncc([N+](=O)[O-])s1 [Nitazoxanide]
impact on cytochrome P450 enzymes (cytochrome P450 enzymes): no significant impact

SMILES: OCc1cc(C(O)CNCCCCCCOCCCCc2ccccc2)ccc1O (centres unmarked) [Salmeterol, salmeterol]
onset of action (airways): 90 min

EC50 (human ASM cells; read-out: average EC50 for Eact induced ASM depolarization): 1.6 µM
SMILES: COCCN(C(=O)c1cc(OC)c(OC)c(OC)c1)c1nc(-c2ccccc2)cs1 [Eact]
EC50 (human ASM cells; cells from normal, asthmatic or COPD patient, read-out: average EC50 for depolarizing human ASM cells): 1 to 3 µM
increase of Muc5AC secretion [1]: 2–3 fold
EC50 (TMEM16A): 3 µM
increase of leukotriene (LTC4, LTB4) secretion [2]: 6–12 fold
